From US20230081426A1, “COMPOUNDS AND METHODS FOR KRAS MODULATION AND INDICATIONS THEREFOR” (Plexxikon Inc., priority 2020, published 2023)

Experiments:
[1] = molecular target: T1, G12V-mutant human KRAS (amino acid residues 1-188) (Homo sapiens, UniProt P01116, G12V); experiment: KRAS Binding Competition Assay (AlphaScreen; biotinylated KRpep-2d analogue), G12V; settings: geometric mean, read-out: KRAS GMean IC50 (uM) MUTATION: G12V
T1 construct: G12V-mutant human KRAS (amino acid residues 1-188) with FLAG tag was purified from E. coli; made in house; host or cells: E. coli

[2] = molecular target: T2, G12D-mutant human KRAS (amino acid residues 1-188) (Homo sapiens, UniProt P01116, G12D); experiment: KRAS Binding Disruption Assay (AlphaScreen; biotinylated KRpep-2d analogue or RAF1-RBD), G12D; settings: KRAS G12D; geometric mean; read-out: KRAS GMean IC50 (uM) MUTATION: G12D
T2 construct: G12D or G12C-mutant human KRAS (amino acid residues 1-188) with FLAG tag; made in house; host or cells: E. coli
How it was run: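 Compounds are titrated against 5-20 nM mutant KRAS and 5-20 nM of either a biotinylated KRpep-2d analogue or RAF1-RBD, incubated 1 h at 25° C. Disruption is detected as reduced Alpha signal after 1 h with donor and acceptor beads at 10 μg/mL.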

SMILES | IC50 [1] [µM] | IC50 [2] [µM]
CC(C(=O)N1[C@@H]2CC[C@H]1CN(c1nc(OCC34CCCN3CCC4)nc3c(F)c(-c4cc(O)cc5ccccc45)ccc13)C2)S(N)(=O)=O (stereo partly drawn) [P-0449, 1-((1R,5S)-3-(8-fluoro-7-(3-hydroxynaphthalen-1-yl)-2-((tetrahydro-1H-pyrrolizin-7a(5H)-yl)methoxy)quinazolin-4-yl)-3,8-diazabicyclo[3.2.1]octan-8-yl)-1-oxopropane-2-sulfonamide] | 0.0001 to 10 | 0.0001 to 10
COC(=N)CC(=O)N1[C@@H]2CC[C@H]1CN(c1nc(OC[C@@H]3CCCN3C)nc3c(F)c(-c4cc(O)cc5ccccc45)c(Cl)cc13)C2 [P-0450, methyl 3-((1R,5S)-3-(6-chloro-8-fluoro-7-(3-hydroxynaphthalen-1-yl)-2-(((S)-1-methylpyrrolidin-2-yl)methoxy)quinazolin-4-yl)-3,8-diazabicyclo[3.2.1]octan-8-yl)-3-oxopropanimidate] | 10 to 100 | 10 to 100
CN1CCC[C@H]1COc1nc(N2C[C@H]3CC[C@@H](C2)N3C(=O)CC(N)=O)c2cc(Cl)c(-c3cc(O)cc4ccccc34)c(F)c2n1 [P-0451, 3-((1R,5S)-3-(6-chloro-8-fluoro-7-(3-hydroxynaphthalen-1-yl)-2-(((S)-1-methylpyrrolidin-2-yl)methoxy)quinazolin-4-yl)-3,8-diazabicyclo[3.2.1]octan-8-yl)-3-oxopropanamide] | 10 to 100 | 0.0001 to 10
NS(=O)(=O)C1(C(=O)N2[C@@H]3CC[C@H]2CN(c2nc(OCC45CCCN4CCC5)nc4c(F)c(-c5cc(O)cc6ccccc56)ccc24)C3)CC1 [P-0452, 1-((1R,5S)-3-(8-fluoro-7-(3-hydroxynaphthalen-1-yl)-2-((tetrahydro-1H-pyrrolizin-7a(5H)-yl)methoxy)quinazolin-4-yl)-3,8-diazabicyclo[3.2.1]octane-8-carbonyl)cyclopropane-1-sulfonamide] | 0.0001 to 10 | 0.0001 to 10
Cc1cccc2c1N(c1ncc3c(N4C[C@H]5CC[C@@H](C4)N5)nc(OCC45CCCN4CCC5)nc3c1F)CC(O)C2 (stereo partly drawn) [P-0453, 1-(4-((1R,5S)-3,8-diazabicyclo[3.2.1]octan-3-yl)-8-fluoro-2-((tetrahydro-1H-pyrrolizin-7a(5H)-yl)methoxy)pyrido[4,3-d]pyrimidin-7-yl)-8-methyl-1,2,3,4-tetrahydroquinolin-3-ol] | 100 to 1000 | 0.0001 to 10
Cc1cccc2c1N(c1ccc3c(N4C[C@H]5CC[C@@H](C4)N5)nc(OCC45CCCN4CCC5)nc3c1F)CC(O)C2 (stereo partly drawn) [P-0454, 1-(4-((1R,5S)-3,8-diazabicyclo[3.2.1]octan-3-yl)-8-fluoro-2-((tetrahydro-1H-pyrrolizin-7a(5H)-yl)methoxy)quinazolin-7-yl)-8-methyl-1,2,3,4-tetrahydroquinolin-3-ol] | 100 to 1000 | 0.0001 to 10
CCCc1nc(N2C[C@H]3CC[C@@H](C2)N3)c2ccc(-c3cc(O)cc4ccccc34)c(F)c2n1 [P-0455, 4-(4-((1R,5S)-3,8-diazabicyclo[3.2.1]octan-3-yl)-8-fluoro-2-propylquinazolin-7-yl)naphthalen-2-ol] | 10 to 100 | 0.0001 to 10
OCc1nc(N2C[C@H]3CC[C@@H](C2)N3)c2cc(Cl)c(-c3c(O)cccc3F)c(F)c2n1 [P-0456, 2-(4-((1R,5S)-3,8-diazabicyclo[3.2.1]octan-3-yl)-6-chloro-8-fluoro-2-(hydroxymethyl)quinazolin-7-yl)-3-fluorophenol] | 10 to 100 | 10 to 100
Cc1cccc2c(Nc3c(F)cc4c(N5C[C@H]6CC[C@@H](C5)N6)nc(OC[C@@H]5CCCN5C)nc4c3F)n[nH]c12 [P-0457, 4-((1R,5S)-3,8-diazabicyclo[3.2.1]octan-3-yl)-6,8-difluoro-N-(7-methyl-1H-indazol-3-yl)-2-(((S)-1-methylpyrrolidin-2-yl)methoxy)quinazolin-7-amine] | 10 to 100 | 10 to 100
CN1CCC[C@H]1COc1nc(N2C[C@H]3CC[C@@H](C2)N3)c2ccc(-n3nc(O)c4cccc(F)c43)c(F)c2n1 [P-0458, 1-(4-((1R,5S)-3,8-diazabicyclo[3.2.1]octan-3-yl)-8-fluoro-2-(((S)-1-methylpyrrolidin-2-yl)methoxy)quinazolin-7-yl)-7-fluoro-1H-indazol-3-ol] | 100 to 1000 | 10 to 100
OCC(O)c1nc(N2C[C@H]3CC[C@@H](C2)N3)c2ccc(-c3cc(O)cc4ccccc34)c(F)c2n1 (stereo partly drawn) [P-0459, 1-(4-((1R,5S)-3,8-diazabicyclo[3.2.1]octan-3-yl)-8-fluoro-7-(3-hydroxynaphthalen-1-yl)quinazolin-2-yl)ethane-1,2-diol] | 0.0001 to 10 | 0.0001 to 10
CN1CC(=O)N(Cc2nc(N3C[C@H]4CC[C@@H](C3)N4)c3cc(Cl)c(-c4c(O)cccc4F)c(F)c3n2)C1=O [P-0460, 3-((4-((1R,5S)-3,8-diazabicyclo[3.2.1]octan-3-yl)-6-chloro-8-fluoro-7-(2-fluoro-6-hydroxyphenyl)quinazolin-2-yl)methyl)-1-methylimidazolidine-2,4-dione] | 10 to 100 | 10 to 100
N#CCC(=O)N1[C@@H]2CC[C@H]1CN(c1nc(OCC34CCCN3CCC4)nc3c(F)c(-c4cc(O)cc5ccccc45)c(Cl)cc13)C2 [P-0461, 3-((1R,5S)-3-(6-chloro-8-fluoro-7-(3-hydroxynaphthalen-1-yl)-2-((tetrahydro-1H-pyrrolizin-7a(5H)-yl)methoxy)quinazolin-4-yl)-3,8-diazabicyclo[3.2.1]octan-8-yl)-3-oxopropanenitrile] | 0.0001 to 10 | 0.0001 to 10
Cc1cccc2c(O)nn(-c3ccc4c(N5C[C@H]6CC[C@@H](C5)N6)nc(OC[C@@H]5CCCN5C)nc4c3F)c12 [P-0462, 1-(4-((1R,5S)-3,8-diazabicyclo[3.2.1]octan-3-yl)-8-fluoro-2-(((S)-1-methylpyrrolidin-2-yl)methoxy)quinazolin-7-yl)-7-methyl-1H-indazol-3-ol] | 10 to 100 | 10 to 100
CN1CCC[C@H]1COc1nc(N2C[C@H]3CC[C@@H](C2)N3C(=O)CC#N)c2cc(F)c(-c3cc(O)cc4ccccc34)c(F)c2n1 [P-0464, 3-((1R,5S)-3-(6,8-difluoro-7-(3-hydroxynaphthalen-1-yl)-2-(((S)-1-methylpyrrolidin-2-yl)methoxy)quinazolin-4-yl)-3,8-diazabicyclo[3.2.1]octan-8-yl)-3-oxopropanenitrile] | 0.0001 to 10 | 10 to 100
Cc1cccc2cccc(-c3ccc4c(N5C[C@H]6CC[C@@H](C5)N6)nc(OC[C@@H]5CCCN5C)nc4c3F)c12 [P-0465, 4-((1R,5S)-3,8-diazabicyclo[3.2.1]octan-3-yl)-8-fluoro-7-(8-methylnaphthalen-1-yl)-2-(((S)-1-methylpyrrolidin-2-yl)methoxy)quinazoline] | 10 to 100 | 0.0001 to 10
Fc1c(-c2c[nH]c3ccc(Cl)c(F)c23)c(Cl)cc2c(N3C[C@H]4CC[C@@H](C3)N4)nc(OCC34CCCN3CCC4)nc12 [P-0466, 4-((1R,5S)-3,8-diazabicyclo[3.2.1]octan-3-yl)-6-chloro-7-(5-chloro-4-fluoro-1H-indol-3-yl)-8-fluoro-2-((tetrahydro-1H-pyrrolizin-7a(5H)-yl)methoxy)quinazoline] | 10 to 100 | 0.0001 to 10
CN1CCC[C@H]1COc1nc(N2C[C@H]3CC[C@@H](C2)N3CC(=O)C2CCNCC2)c2ccc(-c3cc(O)cc4ccccc34)c(F)c2n1 [P-0467, 2-((1R,5S)-3-(8-fluoro-7-(3-hydroxynaphthalen-1-yl)-2-(((S)-1-methylpyrrolidin-2-yl)methoxy)quinazolin-4-yl)-3,8-diazabicyclo[3.2.1]octan-8-yl)-1-(piperidin-4-yl)ethan-1-one] | 10 to 100 | 0.0001 to 10
CN1CCC[C@H]1COc1nc(N2C[C@H]3CC[C@@H](C2)N3C(=N)N)c2ccc(-c3cc(O)cc4ccccc34)c(F)c2n1 [P-0468, (1R,5S)-3-(8-fluoro-7-(3-hydroxynaphthalen-1-yl)-2-(((S)-1-methylpyrrolidin-2-yl)methoxy)quinazolin-4-yl)-3,8-diazabicyclo[3.2.1]octane-8-carboximidamide] | 10 to 100 | 0.0001 to 10
CN1CCC[C@H]1COc1nc(N2C[C@H]3CC[C@@H](C2)N3c2cnccn2)c2ccc(-c3cc(O)cc4ccccc34)c(F)c2n1 [P-0469, 4-(8-fluoro-2-(((S)-1-methylpyrrolidin-2-yl)methoxy)-4-((1R,5S)-8-(pyrazin-2-yl)-3,8-diazabicyclo[3.2.1]octan-3-yl)quinazolin-7-yl)naphthalen-2-ol] | 100 to 1000 | 0.0001 to 10
CN1CCC[C@H]1COc1nc(N2C[C@H]3CC[C@@H](C2)N3C(=O)Cc2cc[nH]n2)c2ccc(-c3cc(O)cc4ccccc34)c(F)c2n1 [P-0470, 1-((1R,5S)-3-(8-fluoro-7-(3-hydroxynaphthalen-1-yl)-2-(((S)-1-methylpyrrolidin-2-yl)methoxy)quinazolin-4-yl)-3,8-diazabicyclo[3.2.1]octan-8-yl)-2-(1H-pyrazol-3-yl)ethan-1-one] | 10 to 100 | 100 to 1000
CN1CCC[C@H]1COc1nc(N2C[C@H]3CC[C@@H](C2)N3CC(=O)N2CCNCC2)c2ccc(-c3cc(O)cc4ccccc34)c(F)c2n1 [P-0471, 2-((1R,5S)-3-(8-fluoro-7-(3-hydroxynaphthalen-1-yl)-2-(((S)-1-methylpyrrolidin-2-yl)methoxy)quinazolin-4-yl)-3,8-diazabicyclo[3.2.1]octan-8-yl)-1-(piperazin-1-yl)ethan-1-one] | 100 to 1000 | 0.0001 to 10
